The source of these data is patent US20170114128A1, “USE OF TGF-BETA ANTAGONISTS OF TREAT TYPE-2 DIABETES” (ALBERT EINSTEIN COLLEGE OF MEDICINE, INC., priority 2014, published 2017).

This assay relates to normal C57BL/6 mice. Briefly: Intra-third ventricle injection of TGF-β1, GTT, ITT, food intake and body weight. Format: in vivo. The protocol: Brain TGF-β excess impairs glucose tolerance: To study the metabolic effects of brain TGF-β excess, a pharmacological approach was first used by which TGF-β was delivered into the hypothalamic third ventricle of normal C57BL/6 mice via pre-implanted cannula. To optimize the dosage, different doses of TGF-β1 (0, 0.5, 1.0, and 4.0 ng) were injected, and TGF-β1 concentrations measured in the CSF at various time points post-injection. […] Based on this condition, overnight-fasted mice were given intra-third ventricle injections of TGF-β1 in these doses, one injection at night after food was removed, and the second injection in the following morning at 4 hours prior to glucose tolerance test (GTT). […] In sum, a pharmacological induction of brain TGF-β excess can acutely cause pre-diabetic changes including glucose intolerance and insulin resistance.
Animals. Tgfb1^lox/lox mice, Tgfbr2^lox/lox mice, Tgfb1^+/− mice, GFAP-Cre mice, and T1r4^−/− mice on C57BL/6 were obtained from Jackson (32,56-59) and continued to be maintained on C57BL/6. CMV-lox-stop-lox-Tgfb1 mice(30) obtained from Jackson were backcrossed into C57BL/6. POMC-Cre mice maintained on C57BL/6 were used in our previous research (20,60). All mice were housed in standard, pathogen-free animal facility with 12 h/12 h light and darkness cycles, and adult male mice were used in experiments of this work. Mice were maintained on normal chow since weaning, and for some experiments involving HFD feeding, a HFD (45% kcal fat, Research Diets, Inc.) was used when mice were two to three months old. Food intake and body weight of mice were measured using a laboratory scale. GTT was performed in mice through intraperitoneal (i.p.) injection of glucose at 2 g/kg body weight. ITT was performed in mice through i.p. injection of human recombinant insulin (Nova Nordisk) at the dose of 0.7 U/kg body weight. Blood glucose levels during GTT and ITT were measured with LifeScan® blood glucose monitoring system. All procedures were approved by the Institutional Animal Care and Use Committee of Albert Einstein College of Medicine.
Brain injection. […]

On to “TGF-β1: transforming growth factor-β1 (Sigma), cytokine dissolved in artificial cerebrospinal fluid for third-ventricle injection”, for which the “glucose intolerance effect, comparison of doses” value (4 ng) was “slightly strongest”. Under “4 ng, third ventricle”, the “sensitivity of insulin in lowing blood glucose (ITT)” value is “significantly dampened”. The “glucose tolerance in GTT” value (each dose (0.5, 1.0, 4.0 ng), two intra-third ventricle injections, overnight-fasted) is recorded as “led to glucose intolerance”.
